Source: US7858635B2 (priority 2005, dated 2010)

Assays:
M1 muscarinic receptor = target: T1, M1 muscarinic receptor (Homo sapiens, UniProt P11229); assay: Functional mobilization of intracellular calcium (FLIPR, Fluo-3), M1-CHO cells; assay type: cell-based; conditions: compound nos. 1-454; for Emax: 100% efficacy is the maximum response obtained with the Carbachol control, read-out: M1 Efficacy; for M1 Activity: M1-CHO cells, calcium mobilization
T1 construct: expressed in transfected cells; host or cells: CHO cells (M1-CHO, under zeocin and G418 selection)
T1 sequence (P11229 1-460): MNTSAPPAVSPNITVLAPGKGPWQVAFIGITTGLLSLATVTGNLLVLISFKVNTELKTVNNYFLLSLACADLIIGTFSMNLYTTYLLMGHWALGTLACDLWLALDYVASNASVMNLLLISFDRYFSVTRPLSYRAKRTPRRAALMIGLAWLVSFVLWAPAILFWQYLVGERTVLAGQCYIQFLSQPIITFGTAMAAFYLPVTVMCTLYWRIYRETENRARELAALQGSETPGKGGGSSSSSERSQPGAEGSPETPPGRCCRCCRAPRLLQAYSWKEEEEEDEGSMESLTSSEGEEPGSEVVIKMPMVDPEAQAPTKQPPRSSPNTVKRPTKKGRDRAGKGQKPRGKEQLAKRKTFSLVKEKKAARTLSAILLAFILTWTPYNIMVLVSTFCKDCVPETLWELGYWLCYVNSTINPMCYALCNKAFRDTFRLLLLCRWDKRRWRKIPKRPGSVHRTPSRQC
Summary of the method: (§1)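 Intracellular calcium was tracked by fluorescence (488/540 nm) over 60 sec after compound addition to dye-loaded CHO cells expressing the receptor. Inhibitory activity used a 15 min pre-incubation before carbachol at the subtype EC80.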

M4 muscarinic receptor = target: T2, M4 muscarinic receptor (Homo sapiens, UniProt P08173); assay: Functional mobilization of intracellular calcium (FLIPR, Fluo-3), M4-CHO cells; assay type: cell-based; conditions: compound nos. 1-454; for Emax: 100% efficacy is the maximum response obtained with the Carbachol control, read-out: M4 Efficacy; for M4 Activity: M4-CHO cells, calcium mobilization
T2 construct: expressed in transfected cells; host or cells: CHO cells (M4-CHO, under puromycin, zeocin and blasticidin selection)
T2 sequence (P08173 1-479): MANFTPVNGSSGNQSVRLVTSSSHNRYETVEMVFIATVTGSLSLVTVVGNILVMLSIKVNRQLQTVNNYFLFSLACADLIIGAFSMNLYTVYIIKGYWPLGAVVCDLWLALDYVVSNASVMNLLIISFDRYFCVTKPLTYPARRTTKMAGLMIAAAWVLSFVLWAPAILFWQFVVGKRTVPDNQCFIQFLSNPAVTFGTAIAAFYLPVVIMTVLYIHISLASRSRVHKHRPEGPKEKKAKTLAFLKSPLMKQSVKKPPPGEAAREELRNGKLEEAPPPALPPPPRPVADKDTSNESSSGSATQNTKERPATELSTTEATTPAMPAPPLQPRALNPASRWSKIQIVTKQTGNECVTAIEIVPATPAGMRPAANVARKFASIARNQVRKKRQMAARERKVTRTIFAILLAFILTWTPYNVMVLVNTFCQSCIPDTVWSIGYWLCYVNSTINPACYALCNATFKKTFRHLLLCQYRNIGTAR
Summary of the method: as §1

Structure (SMILES) | Emax (M1 muscarinic receptor) | M1 Activity (M1 muscarinic receptor) | Emax (M4 muscarinic receptor) | M4 Activity (M4 muscarinic receptor)
CCOC(=O)N1CCC(N2CCC3(CC2)CN(C(C)=O)c2ccc(-c4cccc(F)c4)cc23)CC1 [compound 84] | 65 to 85% | +++ (activity was measured to be less than or equal to 0.7 μM) | 55 to 70% | ++ (activity was measured to be between 0.1 μM and 4.0 μM)
Clc1ccc2c(c1)C1(CCN(C3CC4CCC(C4)C3)CC1)CN2 (stereo not drawn) [compound 85] | 65 to 85% | +++ (activity was measured to be less than or equal to 0.7 μM) | 55 to 70% | ++ (activity was measured to be between 0.1 μM and 4.0 μM)
CCON=C1CCC(N2CCC3(CC2)CN(C(C)=O)c2ccc(F)cc23)CC1 (stereo not drawn) [compound 86, 1-(1′-(4-(ethoxyimino)cyclohexyl)-5-fluorospiro[indoline-3,4′-piperidine]-1-yl)ethanone] | 65 to 85% | +++ (activity was measured to be less than or equal to 0.7 μM) | < 55% | + (activity was measured to be greater than or equal to 4.0 μM)
O=C(C1CC1)N1CC2(CCN(C3CC4CCC(C3)N4C(=O)O[C@@H]3CCOC3)CC2)c2cc(F)ccc21 (stereo partly drawn) [compound 87] | 65 to 85% | +++ (activity was measured to be less than or equal to 0.7 μM) | < 55% | + (activity was measured to be greater than or equal to 4.0 μM)
CCOC(=O)N1C2CCC1CC(N1CCC3(CC1)CN(C(=O)c1ccno1)c1ccc(F)cc13)C2 (stereo not drawn) [compound 88] | 65 to 85% | +++ (activity was measured to be less than or equal to 0.7 μM) | < 55% | ++ (activity was measured to be between 0.1 μM and 4.0 μM)
CCOC(=O)N1C2CCC1CC(N1CCC3(CC1)CN(S(=O)(=O)c1c(C)noc1C)c1ccc(F)cc13)C2 (stereo not drawn) [compound 89] | 65 to 85% | +++ (activity was measured to be less than or equal to 0.7 μM) | < 55% | ++ (activity was measured to be between 0.1 μM and 4.0 μM)
CCOC(=O)N1C2CCC1CC(N1CCC3(CC1)CN(C(=O)OCCOC)c1ccc(F)cc13)C2 (stereo not drawn) [compound 90] | 65 to 85% | ++ (activity was measured to be between 0.7 μM and 3.0 μM) | < 55% | + (activity was measured to be greater than or equal to 4.0 μM)
CCCOC(=O)N1CCC(N2CCC3(CC2)CN(C(=O)N(C)C)c2ccc(F)cc23)CC1 [compound 91] | 65 to 85% | +++ (activity was measured to be less than or equal to 0.7 μM) | < 55% | ++ (activity was measured to be between 0.1 μM and 4.0 μM)
CCOC(=O)N1CCC(N2CCC3(CC2)CN(C(C)=O)c2ccc(C)cc23)CC1 [compound 92] | 65 to 85% | +++ (activity was measured to be less than or equal to 0.7 μM) | < 55% | ++ (activity was measured to be between 0.1 μM and 4.0 μM)
O=C(O[C@@H]1CCOC1)N1CC2(CCN(C3CC4CCC(C3)N4C(=O)O[C@H]3CCOC3)CC2)c2cc(F)ccc21 (stereo partly drawn) [compound 93] | < 65% | ++ (activity was measured to be between 0.7 μM and 3.0 μM) | < 55% | ++ (activity was measured to be between 0.1 μM and 4.0 μM)
CC(=O)N1CC2(CCN(C3CC4CCC(C3)N4C(=O)OC(C)C)CC2)c2cc(F)ccc21 (stereo not drawn) [compound 94] | < 65% | +++ (activity was measured to be less than or equal to 0.7 μM) | < 55% | ++ (activity was measured to be between 0.1 μM and 4.0 μM)
COCCOC(=O)N1C2CCC1CC(N1CCC3(CCc4ccccc43)CC1)C2 (stereo not drawn) [compound 95] | 65 to 85% | +++ (activity was measured to be less than or equal to 0.7 μM) | < 55% | ++ (activity was measured to be between 0.1 μM and 4.0 μM)
